In test [1] the test system is Leukotriene C4 production in mouse peritoneal macrophages. Description: In vitro mouse peritoneal macrophage Leukotriene C4 inhibition. The class given is cell-based. Particulars: zymosan stimulated, read-out: Percent Inhibition. The method, then:
IN VITRO MOUSE PERITONEAL MACROPHAGE LEUKOTRIENE C4 INHIBITION
The test described below measures the ability of compounds to inhibit the production of Leukotriene C4 in mouse peritoneal macrophages.
Mice (female, CD-1, weighing 25 g) are euthanized by exposure to carbon dioxide. The pertoneal cavity is exposed by peeling back the abdominal skin. A 5 mL portion of media (M199 containing 1% fetal bovine serum, 100 units/mL of penicillin, 100 μg/mL streptomycin, 20 units/mL of heparin and no glutamine) is injected into the exposed peritoneal cavity of each mouse. The lavage fluid is removed and pooled to yield proximately 1×10^6 macrophages/mL. A 2 mL portion of lavage fluid is added to each well of a 24 well sterile multidish and the marcophages are allowed to adhere to the plate for 2 hours at 37° C. in a 5% carbon dioxide atmosphere. The media is removed and each well is washed with 2 mL of phosphate buffered saline (PBS). A 1 mL portion of media, without heparin, but containing 5 μCi/mL of 3H-myoinositol is added to each well and the plates are incubated overnight at 37° C. in a 5% carbon dioxide atmosphere. The media is removed and the cells are washed twice with 2 mL portions of PBS. A 1 mL portion of Puck's saline formulation A containing 1 mM calcium chloride, 1 mM magnesium chloride and 10 mM lithium chloride is added to each well. (The Puck's formulation is made first as a 10× solution which contains 4 g of potassium chloride, 80 g of sodium chloride and 10 g of glucose per liter. The Puck's saline formulation A is made using 10 mL of the 10× Puck's formulation, 0.47 mL of 7.5% sodium bicarbonate and 2 mL of 1M N-2-hydroxyethylpiperazine-N'-2-ethanesulfonic acid per 100 mL.)
Compounds are dissolved in dimethyl sulfoxide. Compounds are tested at concentrations of 10, 1 and 0.1 μM. Each concentration is tested in duplicate.
A 1 μL portion of compound solution or vehicle (DMSO) is added to each well and the plates are incubated for 15 minutes at 37° C. in a 5% carbon dioxide atmosphere. Zymosan is then added to provide a final concentration of 50 μg/mL in each well and the plate is incubated for 1 to 2 hours at 37° C. in a 5% carbon dioxide atmosphere.
Following incubation 200 μL portions of media are transferred to 12×75 mm tubes. The tubes are either assayed immediately or stored at -20° C. until they can be assayed.
The media is assayed for the presence of Leukotriene C4 by radioimmunoassay which is performed according to the manufacturer's instructions (Advanced Magnetics; Cambridge, Mass.). Inhibition of LTC4 production is calculated as the ratio of the amount of LTC4 formed in the presence (LTC4 +cpd) and absence (LTC4 no cpd)of compound according to the equation below. [formula] IC50 values (concentration of compound producing a 50% inhibition of LTC4 production) are calculated by linear regression analysis of percentage inhibition versus log compound concentration plots.

Test [2] has as its system Leukotriene B4 production in whole human blood. Description: In vitro human whole blood Leukotriene B4 inhibition. Conditions: A23187 stimulated, read-out: IC50 (concentration producing 50% inhibition of LTB4 production). The class given is cell-based. The procedure: IN VITRO HUMAN WHOLE BLOOD LEUKOTRIENE B4 INHIBITION
The test method described below measures the ability of compounds to inhibit the production of Leukotriene B4 in whole human blood.
Whole human blood is collected by venipuncture into a 60 cc syringe containing 100 units of heparin.
compounds are disolved in dimethyl sulfoxide. Compounds are tested at concentrations of 100, 33, 11, 3.7, 1.2 and 0.41 μM. Each concentration is tested in duplicate.
Aliquots (1 μL) of compound solution are added to 1 mL polyethylene tubes followed by the addition of 500 μL portion of heparinized blood. The tubes are mixed thoroughly then allowed to preincubate at ambient temperature for 15 minutes. A 25 μL portion of 1 mM Calcium Ionophore A23187 in dimethyl sulfoxide/Tris buffer is added to the tubes. The tubes are mixed thoroughly then incubated at 37° C. for 30 minutes.
The tubes are centrifuged at 2000 rpm for 10 minutes. 100 μL portions of plasma are transferred to 1 mL polyethylene tubes containing 400 μL portions of methanol. The tubes are vortexed then frozen at -20° C. overnight.
The tubes are centrifuged for 10 minutes then 100 μL portions of methanol supernatant are transferred to a 96 well microtiter plate. 10 μL portions are transferred from this plate to a 96 well assay plate. Methanol dilutions of LTB4 standard curve are added to the assay plate. 10 μL portions of blank methanol/plasma supernatant are added to each standard curve well. The assay plate is vacuum dried at ambient temperature. The radioimmunoassay buffer is added, the plate is bath-sonicated for 5 minutes then assayed according to the manufacturer's instructions (Advanced Magnetics; Cambridge, Mass.). Inhibition of LTB4 production is calculated as the ratio of the amount of LTB4 formed in the presence (LTB4 +cpd) and absence (LTB4 no cpd) of compound according the equation below. [formula] IC50 values (concentration of compound producing a 50% inhibition of LTB4 production) are calculated by linear regression analysis of percentage inhibition versus log compound concentration plots.

Test [3] concerns Leukotriene B4 production in rat blood. Description: Rat ex vivo Leukotriene B4 inhibition. The class given is in vivo. Particulars: 2 hours post dose, ex vivo A23187 challenge; for inhibition in vivo at 50 mg/kg: 50 mg/Kg oral. The procedure: RAT EX VIVO LEUKOTRIENE B4 INHIBITION
The test method described below measures the ability of a compound when administrated orally to rats to inhibit the production of Leukotriene B4 in their blood which is drawn and challenged.
Rats (CD, male, non-fasted, 250 g) are lightly anesthetized with carbon dioxide and an approximately 0.75 mL sample of whole blood is obtained via cardiac puncture. The sample is dispensed into 12×75 mm polypropylene tubes containing 8-10 μL of 10,000 units/mL heparin, mixed and then maintained on ice. The rats are allowed to recover approximately one hour then dosed orally with compound dissolved in PEG 400 at a 5 mL/Kg volume. Five (5) rats are utilized per group. Two (2) hours post dose the rats are again anesthetized with carbon dioxide and the blood sampled again via cardiac puncture.
Duplicate 200 μL portions of blood are added to 1.0 mL polypropylene tubes. A 10 μL portion of 1 mM A23 187 Calcium Ionophore in dimethyl sulfoxide/Tris buffer is added to each tube. The tubes are gently vortexed then incubated in a 37° C. water bath for 30 minutes. The tubes are then centrifuged at 4000 rpm for 10 minutes. 50 μL portions of plasma are transferred to 1.0 mL tubes containing 200 μL of methanol. The tubes are vortexed then placed in the freezer overnight.
The tubes are removed from the freezer then centrifuged at 4000 rpm for 10 minutes. 20 μL portions of the methanol/plasma supernatant and 10 μl methanol dilutions of LTB4 standard are transferred to 96 well v-bottom microtiter plates. The plates are vacuum dried at 40° C. A 40 μL portion of LTB4 radioimmunoassay buffer is added to each well. The plate is bath sonicated for 5 minutes then assayed according to the manufacturer's instructions (Advanced Magnetics; Cambridge, Mass.). Percent inhibition values are obtained by comparing the level of LTB4 in the post-dose samples to the level in the pre-dose samples according to the equation below. [formula]

As a reminder, the inhibition is how much of the control response was suppressed. By inhibition in vivo is commonly meant the change of the read-out against control, counted positive when it falls. Low values mean little suppression, high ones strong suppression.

As to `CC(C)N(O)C(=O)Nc1ccc(Cc2ccc(NC(=O)N(O)C(C)C)cc2)cc1` [Example 2, 4,4'-Methylenebis(1-hydroxy-1-isopropyl-3-phenylurea)], in test [1], the inhibition at 0.1 µM came out at 32%, the inhibition at 1 µM was 55% and the inhibition at 10 µM stood at 54%. For the same compound, in test [2], the IC50 came out at 1700 nM. The same compound had an inhibition in vivo at 50 mg/kg in test [3] of 34%.

Take `CN(O)C(=O)Nc1ccc(Cc2ccc(NC(=O)N(C)O)cc2)cc1` [Example 1, 4,4'-Methylenebis(1-hydroxy-1-methyl-3-phenylurea)]: in test [1], the inhibition at 0.1 µM came to 61%, the inhibition at 1 µM worked out at 95% and the inhibition at 10 µM is 100%. For the same compound, the IC50 in test [2] was 550 nM. The compound also gave an inhibition in vivo at 10 mg/kg in test [3] (10 mg/Kg oral) of 16%. The inhibition in vivo at 50 mg/kg in test [3] came to 93%.

For the compound `O=C(Nc1ccc(Cc2ccc(NC(=O)N(O)Cc3ccccc3)cc2)cc1)N(O)Cc1ccccc1` [Example 3, 4,4'-Methylenebis(1-hydroxy-1-benzyl-3-phenylurea)], in test [1], the inhibition at 0.1 µM stood at 25%, the inhibition at 1 µM came to 56% and the inhibition at 10 µM came out at 74%. Moreover, the IC50 in test [2] turned out to be 320 nM. Also, at 50 mg/kg the inhibition in vivo in test [3] was 6%.

For the origin of these results see patent US6121323A, “Bishydroxyureas” (3M Innovative Properties Company, priority 1997, dated 2000).
